Like-named read-outs stand apart in the source and are kept apart here.
Legend:
NOTCH1 = assay: Endogenous NOTCH1 cleavage inhibition in MDA-MB-231 cells (NICD Western blot after EDTA activation); type: cell-based; details: for NICD levels at 100 nM: MDA-MB-231, 100 nM
Description: To extend the study to a more physiological system, we assessed endogenous NOTCH1 cleavage inhibition using the triple‐negative breast cancer line MDA‐MB‐231 (Fig 6A). Full‐length blots are shown in source data for Fig 6. NOTCH1 cleavage was detected by Western blotting using the Cell Signaling neo‐epitope NICD antibody. […] The inhibition of endogenous APP in MDA‐MB‐231 cells was also tested by detecting accumulation of APP COOH‐terminal fragments (APP‐CTFs). […] Figure 6D summarized the APP‐CTF band intensities normalized for DMSO group. The original blots are available in source data for Fig 6.
Short‐term endogenous NOTCH1 cleavage inhibition was tested in the triple‐negative breast cancer cell lines MDA‐MB‐231 (ATCC, Manassas, VA). Cells were plated in 60 mm dishes and maintained as monolayer cultures in DMEM medium supplemented with 10% FBS, 1% penicillin/streptomycin, 1% L‐glutamine (Life Technologies), and incubated at 37°C in a humidified 5% CO2 incubator. After the cells reached ~75% confluency, cultures were pretreated with GSIs for 1 h in DMEM at 37°C in a 5% CO2 incubator. GSIs were tested at concentrations of 0, 0.1, 0.5, 2.5, and 12.5 μM. Then, EDTA (5 mM, Life Technologies) was added to the cell cultures to induce Notch activation for 5 min. Following incubation, cell extracts were prepared by lysing cells in RIPA buffer (Santa Cruz Biotechnology) containing protease and phosphatase inhibitors. Western blotting was performed using Cleaved NOTCH1 (Val1744) antibody (Cell Signaling) with β‐actin (Santa Cruz Biotechnology) as loading control. Band intensities were normalized for actin using ImageJ Software (NIH, USA).
(§1) Sandwich ELISAs used for Aβ detection were performed as previously described (Murphy et al, 1999; Ran et al, 2014). Briefly, Aβ and Aβ‐like peptides in conditioned media were captured with Ab5 antibody and detected with horseradish peroxidase labeled mAb 4G8 (Biolegend). Synthetic Aβ1‐40 was used as standard. All ELISAs were developed with TMB substrate (KPL, Gaithersburg, Maryland, USA). Bis‐Tris precast gels (Biorad, Hercules, CA, USA) were used for all SDS–PAGE. Monoclonal anti‐FLAG M2 antibody (Sigma) and Aβ1‐16 antibody 6E10 (Covance) were used for Western blotting at 1:1,000 dilution. Anti‐CD74 In‐1 antibody (BD Bioscience, San Jose, CA, USA) was used for A20 cell lysate Western blotting at dilution of 1:1,000. MDA‐MB‐231 cell extracts were prepared by lysing cells in RIPA buffer containing protease and phosphatase inhibitors. The lysates were kept on ice for 30 min and vortexed every 10 min, and then centrifuged at 4°C for 10 min at 1,000 g. The supernatants were collected, and protein concentrations were determined by Bradford Assay. Pan‐NOTCH1 antibody (C‐20) (Santa Cruz Biotechnology) and cleaved NOTCH1 (Val1744) antibody ([…]) were used at 1:500 and 1:100 dilution in the test of endogenous NOTCH1 inhibition with β‐actin expression used as loading control. β‐actin antibody was used at 1:1,000 dilution (Sigma). Band intensities normalized for actin using densitometry analysis with ImageJ Software (NIH, USA).

cNOTCH3sub = assay: Cell-based γ-secretase cleavage assay, cNOTCH3sub in H4 cells (Aβ-like peptide ELISA); parameters: species or system human
Description: Using these cell‐based γ‐secretase cleavage assays, we systematically investigated the substrate inhibition profile of BMS‐906024, MK‐0752, PF‐308414, RO4929097, Semagacestat, and DAPT. We treated H4 cells stably expressing cNOTCH1‐4sub with 4 pM to 10 μM of GSIs (Fig 5A and Table 2) and measured the Aβ‐like peptide secreted into the media.
For the cell‐based assay, all substrates contain a human NOTCH4 signal peptide sequence ([…]), amyloid β peptide (Aβ1–25/K16A) epitope tag followed by the juxtamembrane region (JMD) of the given substrate and a FLAG tag ([…]) at the COOH‐terminal. K16A mutant was created to decrease potential α‐secretase cleavage. The cDNAs were generated by gene synthesis conducted by Genscript. A schematic representation of the substrates is provided in Fig 4A, and sequences of the cDNAs and the proteins are provided in Appendix Fig S6. For clarity, these substrates are referred to as cell‐based assay substrates (e.g., NOTCH1 is cNOTCH1sub). Substrate cDNAs were cloned into pCDNA3.1 (Invitrogen, Carlsbad, CA, USA) for expression in H4 cells (ATCC, Manassas, VA).
H4 cells were cultured in Opti‐mem media (Thermo‐Fisher) supplemented with Hyclone 6% fetal bovine serum (GE, Logan, Utah, USA) and 1% penicillin/streptomycin (Life Technologies, Grand Island, NY, USA). pCDNA3.1 plasmids containing the substrate cDNAs were transfected into H4 cells using FuGENE HD reagent (Madison, WI, USA). Stable cell lines were established using G418 selection. […] Cells and conditioned media were used for WB, IP, and ELISA.
as §1

rAPPC100sub = assay: Cell-free γ-secretase assay, rAPPC100sub (IP-MS), low-dose potentiation; type: biochemical; details: in vitro assay, recombinant substrate
Description: We next tested all GSIs on cAPPC100sub and full‐length APP stably overexpressing cells. […] The low‐dose potentiation of γ‐secretase cleavage was further mechanistically probed using in vitro assays with recombinant substrates and IP‐MS.

[1] = Aβ-like peptide in media, GSI overnight, read-out: IC50 cNOTCH3sub
[2] = value in parentheses, read-out: IC50 cNOTCH3sub, from curves excluding the Aβ level > 120%

| IC50 (cNOTCH3sub; [2]) | Compound | NICD levels at 100 nM (NOTCH1) | IC50 (cNOTCH3sub; [1]) | concentration at which cleavage from rAPPC100sub was potentiated (rAPPC100sub) | concentration reducing NICD to background levels or below (NOTCH1; MDA-MB-231) | effect on cNOTCH3sub cleavage at low concentrations (cNOTCH3sub) | concentration that significantly increases cleavage of the cNOTCH3sub (cNOTCH3sub; potentiation at low inhibitor concentration) | NICD levels (NOTCH1; MDA-MB-231, 100 nM to 12.5 μM, 1 h pretreatment then 5 mM EDTA 5 min) |
| --- | --- | --- | --- | --- | --- | --- | --- | --- |
| – | CN1C(=O)[C@@H](NC(=O)[C@H](CCC(F)(F)F)[C@H](CCC(F)(F)F)C(N)=O)N=C(c2ccccc2)c2ccccc21 [BMS‐906024] | reduced NICD to levels equal or lower than baseline | 1.14 nM | 0.03 nM | – | – | – | – |
| – | CCC[C@H](N[C@H]1CCc2cc(F)cc(F)c2C1)C(=O)Nc1cn(C(C)(C)CNCC(C)(C)C)cn1 [PF‐3084014] | reduced NICD to levels equal or lower than baseline | 1.21 nM | – | – | potentiates cleavage of NOTCH3 | – | – |
| 6.93 nM | CC(C)(C(=O)NCC(F)(F)C(F)(F)F)C(=O)N[C@@H]1C(=O)Nc2ccccc2-c2ccccc21 [RO4929097] | reduced NICD to levels equal or lower than baseline | 19.8 nM | – | – | – | 0.5 to 2.5 nM | – |
| 129 nM | CC(C)[C@H](O)C(=O)N[C@@H](C)C(=O)N[C@@H]1C(=O)N(C)CCc2ccccc21 [Semagacestat] | – | 391 nM | 0.16 nM | – | potentiate | – | reduced NICD concentrations to near‐baseline levels at all concentrations tested |

| Compound | IC50 (cNOTCH3sub; [2]) | NICD levels at 100 nM (NOTCH1) | IC50 (cNOTCH3sub; [1]) | concentration at which cleavage from rAPPC100sub was potentiated (rAPPC100sub) | concentration reducing NICD to background levels or below (NOTCH1; MDA-MB-231) | effect on cNOTCH3sub cleavage at low concentrations (cNOTCH3sub) | concentration that significantly increases cleavage of the cNOTCH3sub (cNOTCH3sub; potentiation at low inhibitor concentration) | NICD levels (NOTCH1; MDA-MB-231, 100 nM to 12.5 μM, 1 h pretreatment then 5 mM EDTA 5 min) |
| --- | --- | --- | --- | --- | --- | --- | --- | --- |
| O=C(O)CC[C@H]1CC[C@@](c2cc(F)ccc2F)(S(=O)(=O)c2ccc(Cl)cc2)CC1 [MK‐0752] | 194 nM | – | 370 nM | – | ≥ 0.5 µM | increases cNOTCH3sub cleavage at low doses | – | – |

From publication PMC5494507, “γ‐Secretase inhibitors in cancer clinical trials are pharmacologically and functionally distinct” (EMBO Molecular Medicine, 2017)
